Data from patent US20210353579A1, “HIGH PENETRATION COMPOSITIONS AND USES THEREOF” (Techfields Pharma Co., Ltd., priority 2006, published 2021).
≈ marks a conversion by molar mass, not a printed value. Like-named read-outs stand apart in the source and are kept apart here.

Legend:
[1] = Plasma levels after transdermal administration to hairless mice; assay type: in vivo; conditions: for t, time to peak plasma level after parent compound: parent compound administered (time when taken orally); for Peak plasma concentration after parent compound: parent compound administered, hairless mice; for Peak plasma concentration of parent compound after prodrug compound / t, time to peak plasma level of parent compound after prodrug compound: mouse, in vivo
Description: Tested compounds (20% solution or suspension in 1 mL isopropanol) are administered transdermally to the skin of intact hairless mice. The plasma levels of the parent compounds are determined by HPLC.

human skin tissue = conditions: pH 7.4; for In vitro penetration rate (apparent flux), parent compounds: human, 20 %
in vivo = conditions: rat
Description: The acute toxicity of the prodrug compounds and parent compounds are measured by LD50 of rat.

[2] = Solubility in water / aqueous solubility of HPPs and parent drugs; conditions: for solubility: water
mice = assay: Analgesic activity, acetic acid writhing; assay type: in vivo; conditions: 30 min before acetic acid
Description: The prodrug compounds are administered either transdermally or orally. The parent compounds are administered orally. The number of writhing that occurred when mice are administered the acetic acid solution are counted, and the rate of inhibition based on the control group which was not pretreated with any test compounds is calculated. […] The A group is the control group.

rats = assay: Antipyretic activity, E. coli suspension as pyrogen; assay type: in vivo; conditions: in °C (unit assumed)
Description: Rats are administered with sterilized E. coli suspension as a pyrogen. Each group of rats are administered with a prodrug compounds or parent compounds at a dosage specified below. The prodrug compounds are administered either orally or transdermally. The parent compounds are administered orally.
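Throughout, for LD50 of HPP: acute toxicity in rats expressed as LD50, determined for both prodrugs and their parent compounds.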
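Throughout, for LD50: acute toxicity in rats expressed as LD50, determined for both prodrugs and their parent compounds.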

| SMILES | t, time to peak plasma level after parent compound [1] | Peak plasma concentration after parent compound [1] | In vitro penetration rate (apparent flux), parent compounds (human skin tissue) | LD50 (in vivo) | solubility [2] | also measured |
| --- | --- | --- | --- | --- | --- | --- |
| COc1ccc2c(c1)c(CC(=O)OCC(=O)O)c(C)n2C(=O)c1ccc(Cl)cc1 [Acemetacin, acemetacin] | 1 to 2 h | 0.1 mg/L | 10 μg/cm^2/h | 24 mg/kg | 100 µg/mL (≈ 240 µM) |  |
| C=C(C)CNc1ccc(C(C)C(=O)O)cc1 (stereo not drawn) [Alminoprofen, alminoprofen] | 2 to 4 h | 10 mg/L | 30 μg/cm^2/h | 2400 mg/kg | 100 µg/mL (≈ 456 µM) |  |
| Nc1c(CC(=O)O)cccc1C(=O)c1ccccc1 [Amfenac, amfenac] | 1 to 2 h | 0.1 mg/L | 10 μg/cm^2/h | 310 mg/kg | 200 µg/mL (≈ 783 µM) |  |
| CC(C(=O)O)c1ccc2oc(-c3ccc(Cl)cc3)nc2c1 (stereo not drawn) [Benoxaprofen, benoxaprofen] | 2 to 4 h | 10 mg/L | 40 μg/cm^2/h | 800 mg/kg | 100 µg/mL (≈ 331 µM) |  |
| CC(C(=O)O)c1ccc2c(c1)[nH]c1ccc(Cl)cc12 (stereo not drawn) [Carprofen, carprofen] | 2 to 4 h | 10 mg/L | 40 μg/cm^2/h | 400 mg/kg | 100 µg/mL (≈ 365 µM) |  |
| O=C(O)C1CCc2cc(C3CCCCC3)c(Cl)cc21 (stereo not drawn) [Clidanac, clidanac] | 2 to 4 h | 10 mg/L | 40 μg/cm^2/h | 35 mg/kg | 100 µg/mL (≈ 359 µM) |  |
| CCc1cccc2c3c([nH]c12)C(CC)(CC(=O)O)OCC3 (stereo not drawn) [Etodolac, etodolac] | 1 to 2 h | 0.1 mg/L | 10 μg/cm^2/h | 460 mg/kg | 100 µg/mL (≈ 348 µM) |  |
| O=C(O)Cc1ccccc1Oc1ccc(Cl)cc1Cl [Fenclofenac, fenclofenac] | 1 to 2 h | 0.1 mg/L | 10 μg/cm^2/h | 2280 mg/kg | 100 µg/mL (≈ 337 µM) |  |
| O=C(O)C(Cl)c1ccc(C2CCCCC2)c(Cl)c1 (stereo not drawn) [Fenclorac, fenclorac] | 2 to 4 h | 10 mg/L | 40 μg/cm^2/h | 430 mg/kg | 200 µg/mL (≈ 696 µM) |  |
| O=C(O)Cc1sc(-c2ccccc2)nc1-c1ccc(Cl)cc1 [Fentiazac, fentiazac, reference compound] | 1 to 2 h | 0.1 mg/L | 10 μg/cm^2/h | 700 mg/kg |  |  |
| O=C(O)c1ccccc1Nc1cccc(C(F)(F)F)c1 [Flufenamic acid, flufenamic acid] | 2 to 4 h | 0.1 mg/L | 10 μg/cm^2/h | 720 mg/kg | < 100 µg/mL |  |
| CC(C)Cc1ccc(C(C)C(=O)O)cc1 (stereo not drawn) [Ibuprofen, 2-(ρ-isobutylphenyl) propionic acid, reference compound] | 1 to 2 h | 2 mg/L | 50 μg/cm^2/h | 1500 mg/kg |  | No. of Writhing (mice; 50 mg/kg orally): 17.2; No. of Writhing (mice; 100 mg/kg orally): 13.1; inhibition at 50 mg/kg (mice; Mus musculus, po, 50 mg/kg orally, read-out: % (rate of writhing inhibition)): 50%; inhibition at 100 mg/kg (mice; Mus musculus, po, 100 mg/kg orally, read-out: % (rate of writhing inhibition)): 62%; body temperature, t = 0 min (rats; 100 mg/kg orally): 37.25 ± 0.06; body temperature, t = 90 min (rats; 100 mg/kg orally): 36.83 ± 0.05; body temperature, t = 180 min (rats; 100 mg/kg orally): 36.80 ± 0.08; body temperature, t = 270 min (rats; 100 mg/kg orally): 36.78 ± 0.07; body temperature, t = 0 min (rats; 150 mg/kg orally): 37.35 ± 0.09; body temperature, t = 90 min (rats; 150 mg/kg orally): 36.59 ± 0.07; body temperature, t = 180 min (rats; 150 mg/kg orally): 36.53 ± 0.06; body temperature, t = 270 min (rats; 150 mg/kg orally): 36.55 ± 0.05 |
| COc1ccc2c(c1)c(CC(=O)O)c(C)n2C(=O)c1ccc(Cl)cc1 [Indomethacin, indomethacin] | 1 to 2 h | 0.1 mg/L | 10 μg/cm^2/h | 13 mg/kg | 100 µg/mL (≈ 279 µM) |  |
| CC(C(=O)O)c1ccc(N2Cc3ccccc3C2=O)cc1 (stereo not drawn) [Indoprofen, indoprofen] | 2 to 4 h | 10 mg/L | 30 μg/cm^2/h | 700 mg/kg | 100 µg/mL (≈ 355 µM) |  |
| O=C(O)Cc1cn(-c2ccccc2)nc1-c1ccc(Cl)cc1 [Lonazolac, lonazolac, reference compound] | 1 to 2 h | 0.1 mg/L |  | 1000 mg/kg | 100 µg/mL (≈ 320 µM) |  |
| Cc1cccc(Nc2ccccc2C(=O)O)c1C [Mefenamic acid, mefenamic acid] | 2 to 4 h | 0.1 mg/L | 10 μg/cm^2/h | 600 mg/kg | < 100 µg/mL |  |
| CC(=O)O.CCN(CC)CCOC(=O)CC1=C(C)/C(=C/c2ccc([S+](C)[O-])cc2)c2ccc(F)cc21 (stereo not drawn) [diethylaminoethyl (Z)-5-fluoro-2-methyl-1-[(4-methylsulfinyl)phenylmethylene]-1H-indene-3-acetate.AcOH] |  |  |  |  |  | Peak plasma concentration of parent compound after prodrug compound [1]: 20 mg/L; t, time to peak plasma level of parent compound after prodrug compound [1]: 50 min; % (rate of writhing inhibition) (mice; 100 mg/kg transdermally): 59%; No. of Writhing (mice; 100 mg/kg transdermally): 14.2; body temperature, t = 0 min (rats; 100 mg/kg transdermally): 37.28 ± 0.06; body temperature, t = 90 min (rats; 100 mg/kg transdermally): 36.65 ± 0.05; body temperature, t = 180 min (rats; 100 mg/kg transdermally): 36.62 ± 0.08; body temperature, t = 270 min (rats; 100 mg/kg transdermally): 36.58 ± 0.07; In vitro penetration rate (apparent flux), prodrug compounds (human skin tissue): 900 μg/cm^2/h; LD50 of HPP (rat; rats): 500 mg/kg |
| CC(=O)O.CCN(CC)CCOC(=O)C(Cl)c1ccc(C2CCCCC2)c(Cl)c1 (stereo not drawn) [diethylaminoethyl α,3-dichloro-4-cyclohexylbenzeneacetate.AcOH] |  |  |  |  |  | Peak plasma concentration of parent compound after prodrug compound [1]: 2000 mg/L; t, time to peak plasma level of parent compound after prodrug compound [1]: 50 min; % (rate of writhing inhibition) (mice; 100 mg/kg transdermally): 57%; No. of Writhing (mice; 100 mg/kg transdermally): 15.2; body temperature, t = 0 min (rats; 100 mg/kg transdermally): 37.25 ± 0.06; body temperature, t = 90 min (rats; 100 mg/kg transdermally): 36.75 ± 0.05; body temperature, t = 180 min (rats; 100 mg/kg transdermally): 36.62 ± 0.08; body temperature, t = 270 min (rats; 100 mg/kg transdermally): 36.58 ± 0.07; In vitro penetration rate (apparent flux), prodrug compounds (human skin tissue): 3800 μg/cm^2/h; LD50 of HPP (rat; rats): 600 mg/kg |
| CC(=O)O.CCN(CC)CCOC(=O)C(C)c1ccc(C(=O)c2cccs2)cc1 (stereo not drawn) [diethylaminoethyl α-methyl-4-(2-thienylcarbonyl)benzeneacetate.AcOH] |  |  |  |  |  | Peak plasma concentration of parent compound after prodrug compound [1]: 2000 mg/L; t, time to peak plasma level of parent compound after prodrug compound [1]: 50 min; % (rate of writhing inhibition) (mice; 100 mg/kg transdermally): 55%; No. of Writhing (mice; 100 mg/kg transdermally): 15.7; body temperature, t = 0 min (rats; 100 mg/kg transdermally): 37.28 ± 0.06; body temperature, t = 90 min (rats; 100 mg/kg transdermally): 36.65 ± 0.06; body temperature, t = 180 min (rats; 100 mg/kg transdermally): 36.58 ± 0.08; body temperature, t = 270 min (rats; 100 mg/kg transdermally): 36.45 ± 0.07; In vitro penetration rate (apparent flux), prodrug compounds (human skin tissue): 3000 μg/cm^2/h; LD50 of HPP (rat; rats): 800 mg/kg |
| C=C(C)CNc1ccc(C(C)C(=O)OCCN(CC)CC)cc1.CC(=O)O (stereo not drawn) [diethylaminoethyl α-methyl-4-[(2-methyl-2-propenyl)amino]benzeneacetate.AcOH] |  |  |  |  |  | Peak plasma concentration of parent compound after prodrug compound [1]: 2000 mg/L; t, time to peak plasma level of parent compound after prodrug compound [1]: 50 min; % (rate of writhing inhibition) (mice; 100 mg/kg transdermally): 55%; No. of Writhing (mice; 100 mg/kg transdermally): 15.6; body temperature, t = 0 min (rats; 100 mg/kg transdermally): 37.23 ± 0.06; body temperature, t = 90 min (rats; 100 mg/kg transdermally): 36.69 ± 0.06; body temperature, t = 180 min (rats; 100 mg/kg transdermally): 36.52 ± 0.08; body temperature, t = 270 min (rats; 100 mg/kg transdermally): 36.40 ± 0.07; In vitro penetration rate (apparent flux), prodrug compounds (human skin tissue): 3500 μg/cm^2/h; LD50 of HPP (rat; rats): 1100 mg/kg |
| CC(=O)O.CCN(CC)CCOC(=O)C(C)c1ccc2c(c1)Cc1cccnc1O2 (stereo not drawn) [diethylaminoethyl α-methyl-5H-[1]benzopyrano[2,3-b]pyridine-7-acetate.AcOH] |  |  |  |  |  | Peak plasma concentration of parent compound after prodrug compound [1]: 2000 mg/L; t, time to peak plasma level of parent compound after prodrug compound [1]: 50 min; % (rate of writhing inhibition) (mice; 100 mg/kg transdermally): 54%; No. of Writhing (mice; 100 mg/kg transdermally): 16.1; body temperature, t = 0 min (rats; 100 mg/kg transdermally): 37.27 ± 0.06; body temperature, t = 90 min (rats; 100 mg/kg transdermally): 36.76 ± 0.05; body temperature, t = 180 min (rats; 100 mg/kg transdermally): 36.65 ± 0.08; body temperature, t = 270 min (rats; 100 mg/kg transdermally): 36.49 ± 0.07; In vitro penetration rate (apparent flux), prodrug compounds (human skin tissue): 3800 μg/cm^2/h; LD50 of HPP (rat; rat, in vivo): 750 mg/kg |
| CC(=O)O.CN(C)CCOC(=O)Cc1ccccc1Nc1c(Cl)cccc1Cl [dimethylaminoethyl 2[(2,6-dichlorophenyl)amino] benzene acetate.AcOH] |  |  |  |  |  | LD50 of HPP (rat; rat, in vivo): 700 mg/kg; Solubility in water ([2]; product as prepared in Example 1): 410000 µg/mL |
